Entries after “also recorded” stand apart in the source; their conditions may differ.
Columns and labels:
[1] = system: ascites cells obtained during an operation of a patient with endometrial cancer; experiment: Live-cell fluorescence imaging of ascites cells, endometrial cancer patient, reactive mesothelial cells (Example 3); type: cell-based, human; conditions: cell population in region of interest, apparent reactive mesothelial cells on Papanicolaou staining; 100 μM 2-NBDLG and 20 μM 2TRLG; FIG. 5A
Protocol: Immediately after the start of laparotomy for endometrial cancer, the peritoneal cavity was washed with physiological saline in the same manner as in Example 1 to obtain a peritoneal washing, which was then added to a 50 mL centrifuge tube having 5 mL of the Hanks solution in advance. The resulting ascitic fluid suspension was centrifuged at 1500 G for 2 minutes at room temperature, and then the supernatant was removed with a dropper. Some of the resulting pellet was set aside for cytodiagnosis tests at the hospital's pathology department, and the rest was dispersed into 15 mL of a KRB solution in a 15 mL centrifuge tube, then again centrifuged at 1500 G for 2 minutes at room temperature, and the supernatant was removed with a dropper. The pellet primarily includes red blood cells, and a large amount of red blood cells may obscure the target cells, interfering with microscopy. […]
An ×2 fLG solution prepared as in Example 1 (2-1) in an amount of 1 mL was added and mixed, and the cells was exposed to fLG for 5 minutes in a 37° C. water bath. […] Bright field image: high sensitivity, transmitted illumination intensity 25, aperture stop 20%, exposure time 1/500 s • Green fluorescence image: high sensitivity, excitation light intensity 100%, exposure time 1/4 s • Red fluorescence image: high sensitivity, excitation light intensity 10%, exposure time 1/10 s • (Experiment Results)

[2] = system: ascites cells obtained during an operation of a patient with ovarian cancer (serous adenocarcinoma); experiment: Live-cell fluorescence imaging by the perfusion method, original ascites cells, ovarian cancer patient (Example 4); type: cell-based, human; conditions: cancer cell cluster; perfusion 100 μM 2-NBDLG and 20 μM 2-TRLG for 5 minutes, imaged 10 minutes after switch to KRB; FIG. 7A/7B, 8D
Protocol: A surplus portion of the original ascitic fluid taken from the peritoneal cavity immediately after the start of laparotomy for ovarian cancer (serous adenocarcinoma) was added to a 50 mL centrifuge tube having 5 mL of the Hanks solution in advance. The obtained ascitic fluid suspension was checked for presence of fibrin with a toothpick, and then passed through a mesh to remove fat and impurities. Next, it was evenly dispensed into two 50 mL centrifuge tubes, and centrifuged at 1500 G for 2 minutes at room temperature. The supernatant of each of the two centrifuge tubes was then gently removed from the liquid surface down to 7.5 mL with an electric pipette, and then the rest was further removed with a dropper to leave 1 mL. The sedimented layer containing red blood cells and the like were present at the bottom of the centrifuge tube. A 1 mL portion was collected from the upper surface with a dropper without aspirating red blood cells from the sedimented layer to obtain an ascites cell suspension. • (2) Adhesion of Ascites Cells on Glass Plate by Centrifugation, and Method of Maintaining Cell Viability
The ascites cells were allowed to attach on a glass plate using a commercially available automated cell collecting system CF-12D (Sakura Finetek Japan Co., Ltd.). […]

glucose transporter GLUT = conditions: cited from earlier work
pancreatic cancer cells = conditions: in vitro culture cells such as pancreatic cancer cells or cancer-bearing mice; cited from earlier work

For `O=C[C@@H](Nc1ccc([N+](=O)[O-])c2nonc12)[C@H](O)[C@@H](O)[C@@H](O)CO` [2-NBDLG, 2-[N-(7-nitrobenz-2-oxa-1,3-diazole-4-yl)amino]-2-deoxy-L-glucose], the “fluorescence from 2-NBDLG (green wavelength region)” value [1] is given as “shows fluorescence”, the “fluorescence from 2-NBDLG (green wavelength region), after vs before application of fLG” value [2] is given as “shows fluorescence; also recorded: positive” and the “binding to glucose transporter GLUT” value (glucose transporter GLUT) is given as “does not bind”. The “uptake into cancer cells” value (pancreatic cancer cells) was “specific uptake”.

Reference: patent US20170315129A1, “CANCER CELL DETECTION METHOD USING LIVING BODY-DERIVED CELLS OF BIOLOGICAL ORIGIN” (Hirosaki University, priority 2014, published 2017)
